Test results taken from paper PMC4686731, “Screening of Pharmacologically Active Small Molecule Compounds Identifies Antifungal Agents Against Candida Biofilms” (Frontiers in Microbiology, 2015).
≈ marks a conversion by molar mass, not a printed value. Where two headings read alike, the source gives them in different places.

What was measured:
[1] = tested on: C. albicans SC5314; experiment: AST, adhesion phase; assay type: cell-based; conditions: Candida albicans, SC5314, 1.5 h, read-out: Minimum inhibitory concentration (MIC)
Protocol: (§1) The in vitro susceptibility of well-characterized wild-type C. albicans strain SC5314, which was provided by Prof. N.A.R. Gow (University of Aberdeen, Aberdeen, UK) was tested against 1280 compounds from the Library of Pharmacologically Active Compounds (LOPAC^1280TM, Sigma–Aldrich, USA). The screen was performed with C. albicans SC5314, and hits were further confirmed with the type strains C. dubliniensis MYA 577, C. glabrata ATCC 2001, C. kusei ATCC 6258, C. palapsilosis ATCC 22019, and C. tropicalis ATCC13803.
(§2) To investigate the antifungal effects of the hit compounds, ASTs were conducted using broth microdilution assays with high cell densities of the planktonic mode, adhesion phase and biofilm mode against Candida strains (C. albicans, C. dubliniensis, C. glabrata, C. kusei, C. palapsilosis, and C. tropicalis). First, high density cell (1 × 10^7 cells/mL) suspensions were added to the RPMI medium containing each hit compound (10–1000 μM) in 96-well plates and incubated at 37°C for 24 h. Next, the 50% minimum inhibitory concentrations (MICs) of high-density Candida planktonic cultures were determined using the CellTiter-Glo luminescent cell viability kit, as described above. The antifungal effects of the hit compounds were also evaluated in the adhesion phase and the biofilm mode, in the same manner as the planktonic mode. Candida biofilms were produced as described previously ([Jin et al., 2004]). In brief, Candida cells were grown on SDA at 37°C for 18 h. A loopful of the yeast culture was then inoculated into yeast nitrogen base (YNB) (Difco, USA) medium supplemented with 50 mM glucose. After overnight broth culture in a rotary shaker at 75 rpm, the cells were washed twice with 20 mL of PBS (pH 7.2, 0.1 M). The yeast cells were re-suspended in YNB supplemented with 100 mM glucose and adjusted to an optical density of 0.38 (1 × 10^7 cells/mL) at 520 nm. This standardized cell suspension was used immediately to form biofilms in the wells of 96-well polystyrene culture plates (Iwaki, Tokyo, Japan). First, the cells were incubated for 90 min at 37°C in a shaker at 75 rpm to allow yeast adherence to the well surface (adhesion phase), before the medium was aspirated and each well was washed once with PBS to remove non-adherent cells. YNB containing 100 mM glucose was then pipetted into each well and the plate was incubated at 37°C in a shaker at 75 rpm for 24 h. Non-adherent cells were removed by pipetting and the biofilms were washed twice with PBS. Following this biofilm growth phase, microscopic examination of the cultures was performed to exclude contamination. These ASTs were repeated on three different occasions.

[2] = tested on: C. dubliniensis MYA 577; experiment: AST, adhesion phase; assay type: cell-based; conditions: Candida dubliniensis, MYA577, 1.5 h, read-out: Minimum inhibitory concentration (MIC)
Protocol: as §1, §2

[3] = tested on: C. glabrata ATCC 2001; experiment: AST, adhesion phase; assay type: cell-based; conditions: Nakaseomyces glabratus, ATCC2001, 1.5 h, read-out: Minimum inhibitory concentration (MIC)
Protocol: as §1, §2

[4] = tested on: C. kusei ATCC 6258; experiment: AST, adhesion phase; assay type: cell-based; conditions: 1.5 h, read-out: Minimum inhibitory concentration (MIC)
Protocol: as §1, §2

[5] = tested on: C. palapsilosis ATCC 22019; experiment: AST, adhesion phase; assay type: cell-based; conditions: 1.5 h, read-out: Minimum inhibitory concentration (MIC)
Protocol: as §1, §2

[6] = tested on: C. tropicalis ATCC13803; experiment: AST, adhesion phase; assay type: cell-based; conditions: Candida tropicalis, ATCC13803, 1.5 h, read-out: Minimum inhibitory concentration (MIC)
Protocol: as §1, §2

[7] = tested on: C. albicans SC5314 biofilm; experiment: AST, biofilm mode; assay type: cell-based; conditions: Candida albicans, read-out: Minimum inhibitory concentration (MIC)
Protocol: as §1, §2

[8] = tested on: C. dubliniensis MYA 577 biofilm; experiment: AST, biofilm mode; assay type: cell-based; conditions: Candida dubliniensis, MYA577BIOFILM, read-out: Minimum inhibitory concentration (MIC)
Protocol: as §1, §2

[9] = tested on: C. glabrata ATCC 2001 biofilm; experiment: AST, biofilm mode; assay type: cell-based; conditions: Nakaseomyces glabratus, read-out: Minimum inhibitory concentration (MIC)
Protocol: as §1, §2

[10] = tested on: C. kusei ATCC 6258 biofilm; experiment: AST, biofilm mode; assay type: cell-based; conditions: read-out: Minimum inhibitory concentration (MIC)
Protocol: as §1, §2

[11] = tested on: C. palapsilosis ATCC 22019 biofilm; experiment: AST, biofilm mode; assay type: cell-based; conditions: read-out: Minimum inhibitory concentration (MIC)
Protocol: as §1, §2

[12] = tested on: C. tropicalis ATCC13803 biofilm; experiment: AST, biofilm mode; assay type: cell-based; conditions: Candida tropicalis, read-out: Minimum inhibitory concentration (MIC)
Protocol: as §1, §2

[13] = tested on: human gingival fibroblast (hGF) cells; experiment: Cytotoxicity, WST-1 cell counting assay
Protocol: Primary human gingival fibroblast (hGF) cultures were established from discarded healthy gingival tissues after surgery with the informed consent of the donors ([Nikawa et al., 2006]). In brief, the gingival tissue specimens were treated overnight with 0.025% trypsin and 0.02% EDTA at 4°C. After trypsin neutralization, the lamina propria mucosae were separated from the epithelial layer and minced into pieces in a plastic tissue culture dish, and then maintained in Dulbecco’s modified Eagle medium (Nacalai Tesque, Kyoto, Japan) supplemented with 10% FBS, 100 U/mL penicillin, […] and 250 ng/mL amphotericin B (Nacalai Tesque, Kyoto, Japan). After the fibroblasts had migrated out of the tissue, the tissues were removed and the cells were cultured until they reached confluence. The cells were then seeded onto 96-well tissue culture plates (500 cells per well) and the culture medium was exchanged with fresh growth medium containing the hit compounds (0.98–1000 μM). The cells were cultured continuously and the culture medium containing the hit compounds was renewed every other day. The number of cells was evaluated using the WST-1 cell counting assay (Dojindo Laboratories, Kumamoto, Japan), as described previously ([Hamada et al., 2007]). […] All the experiments were performed using three samples for each condition in triplicate.
To evaluate the safety for clinical use, we tested the cytotoxic effects of the hit compounds using human cell cultures. We used hGF cells because of their ubiquitous nature and their widespread use in cytotoxicity testing ([Egusa et al., 2009]; [LaFleur et al., 2011]). The hGF cells were grown in 96-well plates and exposed to increasing doses (two-fold increments) of each hit compound for 4 days. The hGF metabolic activity was measured every other day and used as an indicator of cell viability.

[14] = tested on: Candida biofilms; experiment: AST, biofilm mode, all Candida strains; assay type: cell-based; conditions: all six strains
Protocol: as §1, §2

[15] = hGF cells, 4 days exposure, 50% reduction in cell number, WST-1
[16] = adhesion phase (90 min adherence)
[17] = SC5314, biofilm mode (24 h biofilm)
[18] = ATCC2001, biofilm mode (24 h biofilm)
[19] = ATCC13803, biofilm mode (24 h biofilm)

C[n+]1cc2c3c(ccc2c2ccc4cc5c(cc4c21)OCO5)OCO3 [Sanguinarine, Sanguinarine chloride hydrate]
MIC [1]: 15.6 µM | MIC [2]: 15.6 µM | MIC [3]: 15.6 µM | MIC [4]: 7.8 µM | MIC [5]: 7.8 µM | MIC [6]: 7.8 µM | MIC ([7]; SC5314, 24 h): 15.6 µM | MIC ([8]; 24 h): 15.6 µM | MIC ([9]; ATCC2001, 24 h): 15.6 µM | MIC ([10]; 24 h): 31.3 µM | MIC ([11]; 24 h): 7.8 µM | MIC ([12]; ATCC13803, 24 h): 31.3 µM | cytotoxicity to hGF cells (in words) ([13]; hGF cells): cytotoxic to hGF cells at low concentrations | Cytotoxic concentration [13, 15]: 0.73 µM | concentration that inhibited the metabolic activity of Candida biofilms ([14]; listed as Sanguinarine chloride hydrate): < 31.3 µM | concentration that inhibited the metabolic activity of Candida biofilms ([14]; listed as sanguinarine chloride hydrate): below 500 μM

Cc1c2ccncc2c(C)c2c1[nH]c1ccccc12 [Ellipticine]
MIC [1, 16]: 62.5 µM (≈ 15.4 µg/mL) | MIC [2, 16]: 125 µM (≈ 30.8 µg/mL) | MIC [3, 16]: 62.5 µM (≈ 15.4 µg/mL) | MIC [4, 16]: 250 µM (≈ 61.6 µg/mL) | MIC [5, 16]: 125 µM (≈ 30.8 µg/mL) | MIC [6, 16]: 250 µM (≈ 61.6 µg/mL) | MIC [7, 17]: 125 µM (≈ 30.8 µg/mL) | MIC ([8]; biofilm mode (24 h biofilm)): 500 µM (≈ 123 µg/mL) | MIC [9, 18]: 62.5 µM (≈ 15.4 µg/mL) | MIC ([10]; biofilm mode (24 h biofilm)): 250 µM (≈ 61.6 µg/mL) | MIC ([11]; biofilm mode (24 h biofilm)): 250 µM (≈ 61.6 µg/mL) | MIC [12, 19]: 250 µM (≈ 61.6 µg/mL) | cytotoxicity to hGF cells (in words) ([13]; hGF cells): cytotoxic to hGF cells at low concentrations | Cytotoxic concentration [13, 15]: 1.95 µM | concentration that inhibited the metabolic activity of Candida biofilms [14]: < 500 µM

Cc1ccc(S(=O)(=O)/C=C/C#N)cc1 [Bay11-7082]
MIC [1, 16]: 31.3 µM (≈ 6.49 µg/mL) | MIC [2, 16]: 15.6 µM (≈ 3.23 µg/mL) | MIC [3, 16]: 31.3 µM (≈ 6.49 µg/mL) | MIC [4, 16]: 15.6 µM (≈ 3.23 µg/mL) | MIC [5, 16]: 15.6 µM (≈ 3.23 µg/mL) | MIC [6, 16]: 31.3 µM (≈ 6.49 µg/mL) | MIC [7, 17]: 31.3 µM (≈ 6.49 µg/mL) | MIC ([8]; biofilm mode (24 h biofilm)): 31.3 µM (≈ 6.49 µg/mL) | MIC [9, 18]: 62.5 µM (≈ 13 µg/mL) | MIC ([10]; biofilm mode (24 h biofilm)): 62.5 µM (≈ 13 µg/mL) | MIC ([11]; biofilm mode (24 h biofilm)): 15.6 µM (≈ 3.23 µg/mL) | MIC [12, 19]: 62.5 µM (≈ 13 µg/mL) | cytotoxicity to hGF cells (in words) [13]: cytotoxic to hGF cells at low concentrations | Cytotoxic concentration ([13]; human, 4 days): 7.81 µM | concentration that inhibited the metabolic activity of Candida biofilms ([14]; listed as BAY11-7082): below 500 μM | concentration that inhibited the metabolic activity of Candida biofilms ([14]; listed as Bay 11-7082): < 62.5 µM

CC(C)(C)c1ccc(S(=O)(=O)/C=C/C#N)cc1 [Bay11-7085]
MIC [1, 16]: 31.3 µM (≈ 7.8 µg/mL) | MIC [2, 16]: 15.6 µM (≈ 3.89 µg/mL) | MIC [3, 16]: 31.3 µM (≈ 7.8 µg/mL) | MIC [4, 16]: 15.6 µM (≈ 3.89 µg/mL) | MIC [5, 16]: 7.8 µM (≈ 1.94 µg/mL) | MIC [6, 16]: 31.3 µM (≈ 7.8 µg/mL) | MIC [7, 17]: 31.3 µM (≈ 7.8 µg/mL) | MIC ([8]; biofilm mode (24 h biofilm)): 62.5 µM (≈ 15.6 µg/mL) | MIC [9, 18]: 62.5 µM (≈ 15.6 µg/mL) | MIC ([10]; biofilm mode (24 h biofilm)): 62.5 µM (≈ 15.6 µg/mL) | MIC ([11]; biofilm mode (24 h biofilm)): 15.6 µM (≈ 3.89 µg/mL) | MIC [12, 19]: 62.5 µM (≈ 15.6 µg/mL) | cytotoxicity to hGF cells (in words) ([13]; hGF cells): cytotoxic to hGF cells at low concentrations | Cytotoxic concentration [13, 15]: 7.81 µM | concentration that inhibited the metabolic activity of Candida biofilms ([14]; listed as BAY11-7085): below 500 μM | concentration that inhibited the metabolic activity of Candida biofilms ([14]; listed as Bay 11-7085): < 62.5 µM
